Several values for one entry are separate records, joined by “and”; a condition that tells them apart may be missing. Identical values can stand only once.
Experiments:
[1] = tested on: Human normal lung IMR90 fibroblasts; test: SMM-Seq detection of induced somatic SNVs in IMR90 cells treated with ENU; assay type: cell-based; details: for sSNVs frq / mutation spectra: CA count / mutation spectra: CG count / mutation spectra: CT count / mutation spectra: TA count / mutation spectra: TC count / mutation spectra: TG count: 72 hours; for sSNVs frq / sSNVs count: single biological replicate; for sSNVs frq: variants / qualified positions (SNV/1 Mb); for mutation spectra: CA count / mutation spectra: CG count / mutation spectra: CT count / mutation spectra: TA count / mutation spectra: TC count / mutation spectra: TG count: single replicate; for sSNVs count: harvested 72 hours after ENU
Protocol: Human normal lung IMR90 fibroblasts were maintained in 10% CO2 and 3% O2 atmosphere at 37° C. in DMEM (GIBCO, Grand Island, NY, USA) supplemented with 10% FBS (GIBCO). Twenty-four hours after cell seeding the culturing media was changed for media containing different doses of ENU. Cells were harvested 72 hours after ENU was applied. Complete media supplemented with ENU (SIGMA, San Louis, MO, USA) was prepared immediately before application from stock solution (100 mg/ml in 100% ethyl alcohol). Control cells were cultured in the presence of the vehicle only.
DNA from fibroblasts and hepatocytes was isolated using Quick-gDNA™ Blood MiniPrep (Zymo Research Corporation, Irvine, CA, USA) according to the manufacturer instructions and quantified using QUBIT kit (ThermoFisher Scientific, USA).
Genomic DNA was first fragmented by double digestion with restriction endonucleases AluI and MluCI (NEB, USA), overnight at 37° C. After purification using 1.5×AMPure XP beads (Beckman Coulter, USA) the fragmented DNA was further processed using NEBNext Ultra II DNA Library Prep Kit for Illumina (NEB). The adapter provided with the kit was replaced with custom adapter P5_HP6N. After double sided size-selection using AMPure XP beads (Beckman Coulter), resulting dumbbell-like product was quantified with QUBIT kit (ThermoFisher) and analyzed on 2100 Bioanalyzer instrument with High Sensitivity DNA kit (Agilent, USA). To prepare P5_HP6N adapter 86 μl of 10 μM solution of oligonucleotide 5′-TCTTC TACAGT NNNNNN AGATCG GAAGAG CACACG TCTGAA CTCCAG TC/ideoxyU/ACACTC TTTCCC TACACG ACGCTC TTCCGA TCT-3′ (IDT, USA) in 0.1×TE buffer was first exposed to 95° C. for 5′ followed by 37° C. for 5′ to form a hairpin. Next, to fill-in the extending 5′-end the self-annealed oligonucleotide was supplemented with 10 μl of Cutsmart buffer (NEB), 2 μl of 10 mM dNTPs mix (NEB) and 10 U of Klenow Fragment (3′→5′ exo-) (NEB) and incubated at 37° C. for 30′. After purification with QIAquick Nucleotide Removal Kit (QIAGEN, USA), the hairpins were digested with 10U of HpyCH4III (NEB) for 1 hour at 37° C., then purified again with QIAquick Nucleotide Removal Kit (QIAGEN) and eluted with 100 μl of EB to obtain ready to use adapter solution.
Next, for SMM sequencing library preparation samples were diluted based on assessed molar concentration. Assuming 150PE sequencing mode and 30 Gb of data per sample, the dilution coefficient (D) was calculated using the formula D=M*NA/1025, where M—sample concentration (pM); NA—Avogadro constant. Next, 1 μl of diluted sample was used as a template in pulse-RCA reaction. The pulse-RCA was performed in 20 μl reaction containing 1 μl of diluted sample, 1 μl of P5-RCA oligo (5′-[…]-3′), 25U (0.5 μl) of SD polymerase HS (BIORON Diagnostics GmbH, Germany), 2 μl of SD polymerase buffer, 1 μl of 10 mM dNTPs mix (NEB), 0.6 μl of 100 mM MgCl2, and 13.9 μl of water. The pulse-RCA program was set as follows: 92° C. for 2′ (1); 92° C. for 30″ (2); 60° C. for 30″ (3); 65° C. for 150″ (4); go to (3) 9 times; hold at 4° C. Product of amplification reaction was purified with […] AMPure XP beads and resuspended in 23 μl TE buffer. The entire volume of RC amplification was PCR amplified in 50 μl reaction volume containing 23 μl of RCA product, 25 μl of NEBNext Ultra II Q5 Master Mix and 1 μl of P5 and P7 dual index oligos. The PCR program was set as follows: 98° C. for 30″ (1); 98° C. for 10″ (2); 65° C. for 75″ (3); go to (2) 8 times (4); 65° C. for 5′ (5); 4° C. forever. The PCR product was purified with 0.7×AMPure XP beads and resuspended in 30 μl of TE buffer. After quantification with Qubit, samples were pooled and sequenced on Illumina NovaSeq instrument using 150 paired-end mode.
Conventional sequencing library was prepared by PCR amplification of adapter ligated samples in 30 μl reaction volume containing 11 μl of undiluted ligated sample, 2U of USER enzyme (NEB) 15 μl of NEBNext Ultra II Q5 Master Mix and 1 μl of P5 and P7 dual index oligos. […]

[2] = tested on: IMR90 cells; test: Cell death of IMR90 cells at the ENU doses used; assay type: cell-based, human; details: sub-lethal doses of ENU (25 and 50 μg/ml)
[3] = tested on: human primary mammary cells; test: SMM-SV somatic structural variant (SV) frequency after bleomycin; assay type: cell-based; details: two different doses of bleomycin, SMM-SV (FIG. 9C)
From the text: As explained, SMM is capable of identifying SNVs and small indels, but not SVs. This is due to the overwhelming amount of chimeric DNA fragments created during library construction. For SMM-seq and other single-molecule assays the process of linking DNA fragments to the sequencing adapters also results in random ligation of DNA fragments to each other. The resulting chimeric sequences are not distinguishable from true SVs since both strands are identical and represent the same SV (FIG. 9A). To address this problem, we used transposase-mediated tagmentation, i.e., the initial step in library preparation where high molecular weight DNA is cleaved and tagged for analysis. While commonly used in library preparation, we used it here in a different, unexpected way. Indeed, as commonly used tagmentation generates priming sites for subsequent PCR which in turn is prone to produce artificial chimeras, giving a similar problem as other approaches. […] To validate SMM-SV we evaluated somatic SV frequency in human primary mammary cells treated with two different doses of bleomycin, a potent […] known to induce somatic SVs. […]

[4] = Cond E25 (ENU 25 μg/ml), IMR90 cells
[5] = Cond E50 (ENU 50 μg/ml), IMR90 cells
[6] = IMR90 cells upon ENU treatment, mutational spectra (FIG. 2C)

In the case of `CCN(N=O)C(N)=O` [ENU, N-ethyl-N-nitrosourea], the sSNVs frq [1, 4] is reported as 0.411 and 0.3226 and 0.3595, the “mutation spectra: CA count” value [1, 4] is reported as 19 and 16 and 12 and the “mutation spectra: CG count” value [1, 4] is reported as 7 and 8 and 4. The “mutation spectra: CT count” value [1, 4] was 10 (2×) and 11, the “mutation spectra: TA count” value [1, 4] was 13 and 10 and 16 and the “mutation spectra: TC count” value [1, 4] was 18 and 22 and 20. The “mutation spectra: TG count” value [1, 4] was 9 and 12 and 7, the sSNVs count [1, 4] was 76 and 78 and 70 and the sSNVs frq [1, 5] was 0.571 and 0.5406. The “mutation spectra: CA count” value [1, 5] was 24 and 16, the “mutation spectra: CG count” value [1, 5] was 2 and 6 and the “mutation spectra: CT count” value [1, 5] was 32 and 16. The “mutation spectra: TA count” value [1, 5] was 38 and 20, the “mutation spectra: TC count” value [1, 5] was 28 and 23 and the “mutation spectra: TG count” value [1, 5] was 17 and 9. The sSNVs count [1, 5] was 141 and 90, the “increase of mutation frequency versus control” value ([1]; ENU 50 μg/ml, IMR90 cells) was “more than 2 fold” and the mutation frequency ([1]; ENU 50 μg/ml, IMR90 cells, average±SD of three biological replicates, control 0.21±0.02, p=9.7*10-5) was 0.54±0.03 SNV/1 Mb. The “relative representation of AT/CG mutations versus untreated control cells” value [1, 6] was “more than 2 times”, the “relative representation of AT/TA mutations versus untreated control cells” value [1, 6] was “more than 2 times” and the cell death [2] was “do not cause any noticeable cell death”.
With bleomycin the “somatic SV frequency” value [3] was “induced SVs in a dose-dependent manner”.

— patent US20250002972A1, “METHOD FOR MEASURING SOMATIC DNA MUTATION AND DNA DAMAGE PROFILES AND A […] SUITABLE THEREFORE” (Albert Einstein College of Medicine, priority 2021, published 2025)
